Reference: article PMC8688152, “Distinct classes of potassium channels fused to GPCRs as electrical signaling biosensors” (Cell Reports Methods, 2021)

Assays:
[1] = system: M2_Kcv-09-xx constructs with larger deletions up to 12 residues; format: cell-based, human (M2), Paramecium bursaria chlorella virus 1 (Kcv); details: ACh 5 μM, TEVC
Procedure: Xenopus oocytes were prepared as previously reported ([Moreau et al., 2008]). Briefly, after surgical retrieval, the oocytes were defolliculated by type 1A collagenase. Each oocyte was injected with 50 nl of RNAse-free water containing the desired mRNAs. The mRNA quantities used per oocyte were: ICCR with Kcv, 2.7 ng (M2_Kcv and D2_Kcv) and 2.9 ng (OXTR_Kcv); ICCR with mTREK-1, 4.2 ng; ICCR with Kir6.2, 4.3 ng; M2, 2.3 ng; D2, 2.2 ng; Kir3.4T, 2.2 ng; Kcv 0.46 ng and mTREK-1, 2.1 ng. Microinjected oocytes were incubated 2 to 3 days at 19°C in modified-Barth's solution (in mM: 1 KCl, 0.82 MgSO4, 88 NaCl, 2.4 NaHCO3, 0.41 CaCl2, 16 HEPES, pH 7.4) supplemented with 100 U.ml^−1 of penicillin and streptomycin and 0.1 mg.mL^−1 of gentamycin. Animal handling and experiments fully conformed to European regulations and were approved by the French Ministry of Higher Education and Research (APAFIS#4420-2016030813053199 v4 to CM). […]
Two-electrode voltage-clamp (TEVC) recordings were performed automatically with HiClamp robots (MultiChannel Systems). […] Ligand effects were measured in high potassium concentration buffer with the membrane potential clamped to −50 mV and at 19°C.
Change of potassium current induced by ligand was calculated either with the barium-sensitive currents as a 0-reference for Kcv-based ICCRs or with the currents in ND96 for mTREK-1 ICCRs. […]

M2_T-00-43 S300A S333A = biological target: T1, M2_T-00-43 S300A S333A (UniProt P08172+P97438, S315A/S348A); experiment: TEVC recording of phosphorylation-deficient M2_T-00-43 S300A S333A; format: cell-based, human (M2), mouse (TREK-1); details: ACh 5 μM
T1 construct: full-length (−00) or M2 deleted of its last nine residues (−09) in the indicated ICCRs; expressed in transfected cells; host or cells: Xenopus oocytes (mRNA injection); gene synthesized by GeneCust
Procedure: (§1) Microelectrodes were filled with […]. […] The membrane voltage was clamped to −50 mV.

M2[T4L]_T-00-43 = experiment: TEVC recording of G protein-uncoupled M2[T4L]_T-00-43; format: cell-based, human (M2), mouse (TREK-1); details: 5 μM ACh
Procedure: as §1

T1 sequence (P08172+P97438 fused P97438:S300A/P97438:S333A): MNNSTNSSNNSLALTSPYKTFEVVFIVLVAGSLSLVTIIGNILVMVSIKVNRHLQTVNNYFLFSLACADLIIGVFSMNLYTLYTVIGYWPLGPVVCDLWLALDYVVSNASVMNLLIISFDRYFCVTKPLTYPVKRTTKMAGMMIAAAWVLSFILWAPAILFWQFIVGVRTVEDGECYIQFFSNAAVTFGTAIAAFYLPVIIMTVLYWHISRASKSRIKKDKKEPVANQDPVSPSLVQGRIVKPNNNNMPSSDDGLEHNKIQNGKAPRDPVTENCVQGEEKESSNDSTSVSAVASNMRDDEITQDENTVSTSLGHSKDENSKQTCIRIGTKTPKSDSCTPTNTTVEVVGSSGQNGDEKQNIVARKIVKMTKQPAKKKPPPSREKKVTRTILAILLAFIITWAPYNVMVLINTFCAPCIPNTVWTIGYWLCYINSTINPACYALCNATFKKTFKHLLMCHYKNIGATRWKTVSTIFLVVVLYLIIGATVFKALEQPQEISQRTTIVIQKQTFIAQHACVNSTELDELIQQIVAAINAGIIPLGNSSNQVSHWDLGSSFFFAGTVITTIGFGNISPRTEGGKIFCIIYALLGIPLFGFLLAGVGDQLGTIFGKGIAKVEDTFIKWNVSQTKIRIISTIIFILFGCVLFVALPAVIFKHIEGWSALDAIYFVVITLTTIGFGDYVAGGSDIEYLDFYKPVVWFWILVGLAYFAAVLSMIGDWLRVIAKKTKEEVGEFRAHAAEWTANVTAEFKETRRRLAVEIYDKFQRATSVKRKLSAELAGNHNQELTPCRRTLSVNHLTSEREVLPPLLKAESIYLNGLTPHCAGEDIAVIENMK

## CC(=O)OCC[N+](C)(C)C [ACh, acetylcholine]
[1]
  response of M2_Kcv-09 constructs with larger deletions up to 12 residues to ACh: did not yield significant responses
M2_T-00-43 S300A S333A
  activation of the S300A S333A double mutant of M2_T-00-43 by ACh: preserved activation
M2[T4L]_T-00-43
  activation of G protein-uncoupled M2[T4L]_T-00-43 by ACh: still activated by ACh with the same amplitude as WT
